Legend:
Type in all cases: cell-based
Escherichia coli = test: Agar plate disc-diffusion, antibacterial inhibition zone; details: Escherichia coli (Gram negative)
Description: (§1) The agar plate disc-diffusion method was applied. […] The discs were then placed onto the surface of agar plates (nutrient agar for bacteria and Sabouraud's dextrose agar for fungi) seeded with the test organism. Each plate contained 15 mL of the agar medium, previously seeded with 0.2 mL of the broth culture of each organism pregrown for 18 hours. The plates were incubated at 37° C. for 48 hours, and 72 hours for fungi. The inhibition zones was measured in millimeter. Discs impregnated with DMSO were used as a control, and its inhibition zone was subtracted from the tested compound actual inhibition zone.
(§2) The results of the antimicrobial testing can be observed in Tables 1 and 2, below, with ciprofloxacin serving as a reference.

Pseudomonas aeruginosa = test: as above; details: Pseudomonas aeruginosa (Gram negative)
Description: as §1, §2

Staphylococcus aureus = test: as above; details: Staphylococcus aureus (Gram positive)
Description: as §1, §2

Bacillus Cereus = test: as above; details: Bacillus Cereus (Gram positive)
Description: as §1, §2

Aspergillus flavus = test: Agar plate disc-diffusion, antifungal inhibition zone
Description: as §1, §2

[1] = test system: Chrysosporium keratinophilum; test: as above
Description: as §1, §2

[2] = A = concentration of comp. = 10,000 μL
[3] = B = concentration of comp. = 30.000 μL
[4] = C = concentration of comp. = 50,000 μL

Row | Compound | inhibition zone (Escherichia coli; [2]) | inhibition zone (Escherichia coli; [3]) | inhibition zone (Escherichia coli; [4]) | inhibition zone (Pseudomonas aeruginosa; [2]) | inhibition zone (Pseudomonas aeruginosa; [3]) | inhibition zone (Pseudomonas aeruginosa; [4]) | inhibition zone (Staphylococcus aureus; [2]) | inhibition zone (Staphylococcus aureus; [3]) | inhibition zone (Staphylococcus aureus; [4]) | inhibition zone (Bacillus Cereus; [2]) | inhibition zone (Bacillus Cereus; [3]) | inhibition zone (Bacillus Cereus; [4]) | inhibition zone (Aspergillus flavus; [2]) | inhibition zone (Aspergillus flavus; [3]) | inhibition zone (Aspergillus flavus; [4]) | inhibition zone [1, 2] | inhibition zone [1, 3] | inhibition zone [1, 4]
1 | O=C(O)c1cn(C2CC2)c2cc(N3CCNCC3)c(F)cc2c1=O [Cip., ciprofloxacin] | 30 millimeter | 39 millimeter | 60 millimeter | 29 millimeter | 30 millimeter | 53 millimeter | 43 millimeter | 44 millimeter | 53 millimeter | 29 millimeter | 30 millimeter | 42 millimeter | 29 millimeter | 30 millimeter | 42 millimeter | 29 millimeter | 30 millimeter | 53 millimeter
2 | O=C1NC(=O)N(N=Cc2ccc([N+](=O)[O-])cc2)C1c1ccccc1 (stereo not drawn) [Compound 4, 1-(4-nitrobenzylideneamino)-5-phenylimidazolidine-2,4-dione] | 30 millimeter | 35 millimeter | 51 millimeter | 25 millimeter | 27 millimeter | 40 millimeter | 19 millimeter | 24 millimeter | 30 millimeter | 25 millimeter | 27 millimeter | 37 millimeter | 19 millimeter | 24 millimeter | 35 millimeter | 26 millimeter | 28 millimeter | 50 millimeter

— US11926598B1, “1-(4-nitrobenzylideneamino)-5-phenylimidazolidine-2,4-dione as an antimicrobial compound” (KING FAISAL UNIVERSITY, priority 2023, dated 2024)
